Experiment [1] in a line: Selectivity interaction (KinomeScan (DiscoverX)) EUB0000695a CDPK1. The note with it: at 100 nM.
The target in experiment [2] is Serine/threonine-protein kinase 32C (Homo sapiens) (UniProt Q86UX6). As to the kind of experiment: Selectivity interaction (KinomeScan (DiscoverX)) EUB0000666a STK32C. The note with it: at 10 µM.
In experiment [3] the target is T1, Ephrin type-A receptor 1 (Homo sapiens) (UniProt P21709).
T1 sequence (whole entry): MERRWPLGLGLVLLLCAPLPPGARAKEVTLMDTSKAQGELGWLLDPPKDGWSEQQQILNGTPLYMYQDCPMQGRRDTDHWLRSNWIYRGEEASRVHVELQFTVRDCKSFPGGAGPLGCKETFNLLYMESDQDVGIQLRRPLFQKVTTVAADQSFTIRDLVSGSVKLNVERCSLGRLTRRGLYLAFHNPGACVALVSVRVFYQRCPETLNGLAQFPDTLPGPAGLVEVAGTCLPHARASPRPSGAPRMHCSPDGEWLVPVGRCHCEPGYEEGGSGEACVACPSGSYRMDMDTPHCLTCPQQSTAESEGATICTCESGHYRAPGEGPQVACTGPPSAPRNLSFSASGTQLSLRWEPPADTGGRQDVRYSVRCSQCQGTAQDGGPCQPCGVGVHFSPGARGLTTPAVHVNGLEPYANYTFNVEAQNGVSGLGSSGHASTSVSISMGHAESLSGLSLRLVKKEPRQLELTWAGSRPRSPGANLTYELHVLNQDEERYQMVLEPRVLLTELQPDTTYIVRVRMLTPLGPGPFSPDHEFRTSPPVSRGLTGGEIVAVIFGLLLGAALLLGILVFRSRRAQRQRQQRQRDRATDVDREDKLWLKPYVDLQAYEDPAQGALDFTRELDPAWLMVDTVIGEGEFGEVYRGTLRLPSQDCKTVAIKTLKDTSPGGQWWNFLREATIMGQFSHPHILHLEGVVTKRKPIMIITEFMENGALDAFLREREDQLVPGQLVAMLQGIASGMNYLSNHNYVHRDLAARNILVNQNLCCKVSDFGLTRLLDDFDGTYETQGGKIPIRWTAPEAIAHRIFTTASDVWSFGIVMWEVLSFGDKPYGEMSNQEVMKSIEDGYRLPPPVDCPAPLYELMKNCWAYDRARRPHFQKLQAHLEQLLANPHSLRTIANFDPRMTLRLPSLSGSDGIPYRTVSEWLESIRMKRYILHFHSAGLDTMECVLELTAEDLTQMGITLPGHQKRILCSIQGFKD
As to the kind of experiment: Selectivity interaction (KinomeScan (DiscoverX)) EUB0000666a EPHA1. The note with it: at 10 µM.

Experiment [4] deals with Myosin light chain kinase, smooth muscle (Homo sapiens, UniProt Q15746). As to the kind of experiment: Selectivity interaction (KinomeScan (DiscoverX)) EUB0000607a MYLK. The note with it: at 10 µM.
Myosin light chain kinase, smooth muscle, sequence (Q15746 whole entry): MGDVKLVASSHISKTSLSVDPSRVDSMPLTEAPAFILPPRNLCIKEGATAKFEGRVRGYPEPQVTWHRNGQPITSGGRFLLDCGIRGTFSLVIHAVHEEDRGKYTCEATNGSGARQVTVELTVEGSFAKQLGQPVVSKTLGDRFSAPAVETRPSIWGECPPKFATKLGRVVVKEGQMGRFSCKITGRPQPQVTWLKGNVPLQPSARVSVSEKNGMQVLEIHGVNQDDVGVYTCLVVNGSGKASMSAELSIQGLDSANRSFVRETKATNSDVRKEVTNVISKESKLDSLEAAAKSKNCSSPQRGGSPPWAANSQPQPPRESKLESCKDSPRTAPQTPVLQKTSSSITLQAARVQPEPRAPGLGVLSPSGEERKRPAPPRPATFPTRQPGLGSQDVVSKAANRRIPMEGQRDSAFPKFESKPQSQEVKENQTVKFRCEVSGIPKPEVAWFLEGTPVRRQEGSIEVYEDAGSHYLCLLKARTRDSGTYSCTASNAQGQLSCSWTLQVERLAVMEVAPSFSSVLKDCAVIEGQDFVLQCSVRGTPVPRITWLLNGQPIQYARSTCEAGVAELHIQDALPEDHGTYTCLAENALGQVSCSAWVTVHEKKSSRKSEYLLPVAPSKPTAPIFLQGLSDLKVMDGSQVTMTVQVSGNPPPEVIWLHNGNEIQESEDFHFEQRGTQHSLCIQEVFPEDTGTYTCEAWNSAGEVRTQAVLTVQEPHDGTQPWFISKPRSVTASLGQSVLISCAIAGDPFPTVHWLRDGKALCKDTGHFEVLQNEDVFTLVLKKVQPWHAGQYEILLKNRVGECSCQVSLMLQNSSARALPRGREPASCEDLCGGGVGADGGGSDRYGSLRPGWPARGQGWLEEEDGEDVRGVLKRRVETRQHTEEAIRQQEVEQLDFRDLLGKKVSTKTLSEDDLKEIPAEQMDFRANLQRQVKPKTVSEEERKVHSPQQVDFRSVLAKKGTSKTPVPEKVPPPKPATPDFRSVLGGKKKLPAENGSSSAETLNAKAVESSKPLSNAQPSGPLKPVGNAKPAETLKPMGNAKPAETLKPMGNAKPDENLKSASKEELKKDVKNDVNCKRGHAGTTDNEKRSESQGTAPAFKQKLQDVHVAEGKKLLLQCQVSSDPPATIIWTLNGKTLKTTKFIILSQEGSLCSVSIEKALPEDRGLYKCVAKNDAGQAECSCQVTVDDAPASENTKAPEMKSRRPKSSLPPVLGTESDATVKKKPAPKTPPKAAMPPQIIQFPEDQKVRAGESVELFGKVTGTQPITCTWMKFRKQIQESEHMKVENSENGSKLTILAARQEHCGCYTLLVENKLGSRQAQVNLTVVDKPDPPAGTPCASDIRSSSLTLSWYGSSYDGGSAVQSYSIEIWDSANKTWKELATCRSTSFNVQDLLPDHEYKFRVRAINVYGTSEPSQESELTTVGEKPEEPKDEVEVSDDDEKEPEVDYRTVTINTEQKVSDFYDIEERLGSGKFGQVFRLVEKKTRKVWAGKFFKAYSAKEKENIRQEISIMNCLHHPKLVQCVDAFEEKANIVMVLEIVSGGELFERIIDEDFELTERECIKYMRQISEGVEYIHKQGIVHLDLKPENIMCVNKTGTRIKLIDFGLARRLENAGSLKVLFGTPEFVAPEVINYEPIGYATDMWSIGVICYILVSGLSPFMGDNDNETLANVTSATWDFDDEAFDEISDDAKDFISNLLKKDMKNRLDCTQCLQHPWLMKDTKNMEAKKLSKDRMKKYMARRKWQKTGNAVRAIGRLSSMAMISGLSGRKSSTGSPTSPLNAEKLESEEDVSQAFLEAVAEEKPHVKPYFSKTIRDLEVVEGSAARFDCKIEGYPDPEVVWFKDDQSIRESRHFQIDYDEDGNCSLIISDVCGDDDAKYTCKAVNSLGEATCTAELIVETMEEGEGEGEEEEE
The target in experiment [5] is T2, Mitogen-activated protein kinase kinase kinase kinase 3 (Homo sapiens) (UniProt Q8IVH8).
T2 sequence (whole entry): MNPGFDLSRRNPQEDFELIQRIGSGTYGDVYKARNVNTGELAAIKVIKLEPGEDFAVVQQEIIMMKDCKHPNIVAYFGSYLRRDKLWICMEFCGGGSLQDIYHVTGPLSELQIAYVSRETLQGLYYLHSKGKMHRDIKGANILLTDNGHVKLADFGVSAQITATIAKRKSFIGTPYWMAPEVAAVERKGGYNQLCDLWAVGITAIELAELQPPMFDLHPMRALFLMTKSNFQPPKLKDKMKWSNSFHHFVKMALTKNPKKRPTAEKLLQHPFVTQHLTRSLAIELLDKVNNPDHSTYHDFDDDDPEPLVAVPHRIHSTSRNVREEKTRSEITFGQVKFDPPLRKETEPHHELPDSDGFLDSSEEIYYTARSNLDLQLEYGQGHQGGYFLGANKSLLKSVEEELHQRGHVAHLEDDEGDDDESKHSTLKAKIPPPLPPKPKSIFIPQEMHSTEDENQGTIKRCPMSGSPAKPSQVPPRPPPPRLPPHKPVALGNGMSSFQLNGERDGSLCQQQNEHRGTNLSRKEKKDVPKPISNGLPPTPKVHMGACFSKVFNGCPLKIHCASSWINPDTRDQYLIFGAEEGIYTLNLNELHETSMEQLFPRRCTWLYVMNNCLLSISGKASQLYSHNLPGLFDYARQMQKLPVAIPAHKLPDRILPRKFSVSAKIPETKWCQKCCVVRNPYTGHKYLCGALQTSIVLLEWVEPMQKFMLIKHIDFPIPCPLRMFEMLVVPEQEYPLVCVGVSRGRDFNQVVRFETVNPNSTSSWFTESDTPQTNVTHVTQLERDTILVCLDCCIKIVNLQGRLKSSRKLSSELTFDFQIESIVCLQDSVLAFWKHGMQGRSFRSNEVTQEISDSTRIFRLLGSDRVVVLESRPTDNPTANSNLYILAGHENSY
As to the kind of experiment: Selectivity interaction (KinomeScan (DiscoverX)) EUB0000618a MAP4K3. The note with it: at 10 µM.

In a further experiment the target is Insulin receptor (Homo sapiens, UniProt P06213). As to the kind of experiment: Selectivity interaction (KinomeScan (DiscoverX)) EUB0000092b INSR. The note with it: at 10 µM.
Insulin receptor, sequence (P06213 28-758 limits assumed): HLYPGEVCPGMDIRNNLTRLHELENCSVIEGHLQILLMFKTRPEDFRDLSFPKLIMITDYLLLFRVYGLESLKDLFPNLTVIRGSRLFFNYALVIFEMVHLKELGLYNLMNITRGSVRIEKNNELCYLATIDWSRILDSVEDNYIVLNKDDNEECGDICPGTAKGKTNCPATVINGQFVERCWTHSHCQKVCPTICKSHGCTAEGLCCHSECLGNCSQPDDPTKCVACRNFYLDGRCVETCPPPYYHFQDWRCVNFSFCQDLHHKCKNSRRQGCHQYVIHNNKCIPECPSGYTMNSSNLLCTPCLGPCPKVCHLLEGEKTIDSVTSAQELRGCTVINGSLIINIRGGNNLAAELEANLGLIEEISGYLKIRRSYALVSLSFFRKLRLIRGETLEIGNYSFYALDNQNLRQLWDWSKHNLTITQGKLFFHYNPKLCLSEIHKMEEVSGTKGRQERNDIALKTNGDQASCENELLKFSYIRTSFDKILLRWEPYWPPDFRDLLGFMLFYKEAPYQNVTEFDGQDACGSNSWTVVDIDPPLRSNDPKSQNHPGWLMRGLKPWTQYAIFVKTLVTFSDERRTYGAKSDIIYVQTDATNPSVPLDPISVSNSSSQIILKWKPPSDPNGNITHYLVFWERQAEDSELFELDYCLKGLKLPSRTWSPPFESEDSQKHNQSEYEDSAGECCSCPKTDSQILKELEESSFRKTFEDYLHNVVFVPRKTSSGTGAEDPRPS
Insulin receptor, sequence (P06213 763-1382 limits assumed): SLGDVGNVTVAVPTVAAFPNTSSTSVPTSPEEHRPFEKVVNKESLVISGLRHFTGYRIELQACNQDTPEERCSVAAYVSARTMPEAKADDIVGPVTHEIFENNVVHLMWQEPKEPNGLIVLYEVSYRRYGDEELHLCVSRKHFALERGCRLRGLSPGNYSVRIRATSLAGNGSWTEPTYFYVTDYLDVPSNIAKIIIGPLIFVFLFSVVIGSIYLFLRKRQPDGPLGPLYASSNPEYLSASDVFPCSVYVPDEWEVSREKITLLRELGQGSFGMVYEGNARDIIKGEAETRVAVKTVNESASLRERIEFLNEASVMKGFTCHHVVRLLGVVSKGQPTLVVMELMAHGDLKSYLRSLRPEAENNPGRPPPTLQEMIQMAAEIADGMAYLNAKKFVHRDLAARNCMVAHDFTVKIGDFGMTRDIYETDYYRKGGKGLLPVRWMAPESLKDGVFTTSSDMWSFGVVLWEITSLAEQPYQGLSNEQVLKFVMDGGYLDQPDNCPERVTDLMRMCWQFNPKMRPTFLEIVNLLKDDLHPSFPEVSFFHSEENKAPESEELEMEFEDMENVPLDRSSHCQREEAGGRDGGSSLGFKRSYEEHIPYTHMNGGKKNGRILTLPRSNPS
Experiment [6] concerns the target T3, Serine/threonine-protein kinase NLK (Homo sapiens) (UniProt Q9UBE8).
T3 sequence (whole entry): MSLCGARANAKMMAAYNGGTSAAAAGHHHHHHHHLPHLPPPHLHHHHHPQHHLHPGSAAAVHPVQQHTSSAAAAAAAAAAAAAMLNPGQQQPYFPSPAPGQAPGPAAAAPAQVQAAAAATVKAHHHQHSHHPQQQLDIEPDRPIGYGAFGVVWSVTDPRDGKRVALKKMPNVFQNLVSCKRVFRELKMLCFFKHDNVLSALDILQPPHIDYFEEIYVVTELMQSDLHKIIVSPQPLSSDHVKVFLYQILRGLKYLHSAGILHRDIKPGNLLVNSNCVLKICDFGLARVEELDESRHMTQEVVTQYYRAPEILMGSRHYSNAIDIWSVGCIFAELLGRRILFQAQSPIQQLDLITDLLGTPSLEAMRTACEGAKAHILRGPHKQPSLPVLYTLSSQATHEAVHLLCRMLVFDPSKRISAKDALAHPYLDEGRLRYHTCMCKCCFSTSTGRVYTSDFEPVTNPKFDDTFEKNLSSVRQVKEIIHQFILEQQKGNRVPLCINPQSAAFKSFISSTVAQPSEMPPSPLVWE
As to the kind of experiment: Selectivity interaction (KinomeScan (DiscoverX)) EUB0001079a NLK. The note with it: at 1 µM.

Serine/threonine-protein kinase 32C (Homo sapiens), sequence (Q86UX6 whole entry): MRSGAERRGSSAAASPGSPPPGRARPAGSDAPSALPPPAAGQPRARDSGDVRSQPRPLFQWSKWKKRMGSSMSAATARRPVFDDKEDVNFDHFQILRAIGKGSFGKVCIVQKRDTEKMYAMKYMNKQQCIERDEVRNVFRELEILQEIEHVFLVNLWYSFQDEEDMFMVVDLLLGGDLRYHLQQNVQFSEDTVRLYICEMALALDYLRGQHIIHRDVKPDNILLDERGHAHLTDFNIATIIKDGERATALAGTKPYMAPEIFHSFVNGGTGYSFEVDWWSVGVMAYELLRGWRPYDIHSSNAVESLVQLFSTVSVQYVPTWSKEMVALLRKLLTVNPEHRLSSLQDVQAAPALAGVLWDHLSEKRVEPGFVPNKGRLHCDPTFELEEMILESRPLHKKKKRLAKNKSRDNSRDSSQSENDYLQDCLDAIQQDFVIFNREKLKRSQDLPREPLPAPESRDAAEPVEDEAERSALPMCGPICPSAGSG

The compound `Cc1cc(F)c(C(=O)Nc2cccc(-c3nncn3C(C)C)n2)cc1-n1cnc(C2CC2)c1` displayed a % of control in experiment [1] of 100%.

For the compound `O=C(NOC[C@H](O)CO)c1ccc(F)c(F)c1Nc1ccc(I)cc1F`, the results for the % of control in experiment [2] and in experiment [3] were 100% and 91%, respectively.

Regarding `CNC(=O)Nc1ccc(-c2nc(N3CC4CCC(C3)O4)c3cnn(C4CCC5(CC4)OCCO5)c3n2)cc1`, the % of control in experiment [4] was found to be 100%.

`O[C@H]1CC[C@H](Nc2ncc3nc(Nc4c(F)cc(F)cc4F)n([C@H]4CCOC4)c3n2)CC1`: the % of control in experiment [5] was found to be 85%.

With `CCC(=O)N1CCN(c2ccc(-n3c(=O)ccc4cnc5ccc(-c6cnc7ccccc7c6)cc5c43)cc2C(F)(F)F)CC1`, the % of control on Insulin receptor came out at 7.6%.

In experiment [6], `Nc1cnc(N2CCc3cc(S(=O)(=O)Nc4c(F)cc(Cl)cc4F)cc(N4CCCC4=O)c32)nc1` [TP-020n] registered a % of control of 100%.

The values above are taken from ChEMBL document CHEMBL5465560, “Selectivity Literature for EUbOPEN Chemogenomic Library” (2024).
